From PubChem BioAssay (NCI)
Values joined by “and” are separate entries in the source; they are usually repeats but may differ in a detail not shown here. Equal entries are not always repeated.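 Each compound was tested at five concentrations against cells in 96-well plates for 48 hours. The concentration for 50% growth inhibition is given as GI50. TGI is the concentration that stops growth completely.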

Columns and labels:
Test in all cases: NCI tumour cell line growth inhibition, 48 h
HCT-15 colon = test system: HCT-15 colon
SK-MEL-2 melanoma = test system: SK-MEL-2 melanoma
NCI-H460 lung = test system: NCI-H460 lung
HCC-2998 colon = test system: HCC-2998 colon
HCT-116 colon = test system: HCT-116 colon
CAKI-1 renal = test system: CAKI-1 renal
LOX IMVI melanoma = test system: LOX IMVI melanoma
SR leukemia = test system: SR leukemia
TK-10 renal = test system: TK-10 renal
NCI/ADR-RES ovarian = test system: NCI/ADR-RES ovarian

Structure (SMILES) | GI50 (HCT-15 colon) | TGI (HCT-15 colon) [µM] | GI50 (SK-MEL-2 melanoma) | TGI (SK-MEL-2 melanoma) | GI50 (NCI-H460 lung) | TGI (NCI-H460 lung) [µM] | GI50 (HCC-2998 colon) | TGI (HCC-2998 colon) [µM] | GI50 (HCT-116 colon) | TGI (HCT-116 colon) [µM] | GI50 (CAKI-1 renal) | TGI (CAKI-1 renal) | GI50 (LOX IMVI melanoma) | TGI (LOX IMVI melanoma) [µM] | GI50 (SR leukemia) | TGI (SR leukemia) [µM] | GI50 (TK-10 renal) | TGI (TK-10 renal) | GI50 (NCI/ADR-RES ovarian) | TGI (NCI/ADR-RES ovarian) [µM]
Cc1nc(SCC(=O)Nc2nc(-c3ccc(Cl)cc3)cs2)n(Nc2ccccc2)c1C | 5.74 µM | 23.3 | 10.1 µM | 27.6 µM | 2.89 µM | 11 | 10.6 µM | 29.5 | 1.84 µM | 4.62 | 3.93 µM | 22.6 µM | 1.78 µM | 3.72 | 3.81 µM | > 100 | 3.65 µM | 13.8 µM | 2.6 µM | 7.18
FC(F)c1nc2ccccc2n1-c1nc(N2CCOCC2)nc(N2CCOCC2)n1 | 0.389 µM and 0.479 µM | > 100 | 0.519 µM and 1.08 µM | 2.79 µM and 14.3 µM | 0.276 µM and 0.303 µM | > 100 | 0.497 µM and 0.807 µM | – | 0.618 µM and 0.734 µM | > 100 | 0.197 µM and 0.268 µM | 4.25 µM and 2.35 µM | 0.376 µM and 0.491 µM | – | 0.686 µM and 0.578 µM | > 100 | 0.129 µM and 0.205 µM | 0.907 µM and 1.58 µM | 0.457 µM and 0.496 µM | > 100
CCOC(=O)c1sc(-c2ccc(OS(=O)(=O)c3ccc(Br)s3)c(C=O)c2)nc1C | 2.61 µM | 7.79 | 4.83 µM | 27.8 µM | 22.7 µM | 58.6 | 13.3 µM | 29.3 | 1.89 µM | 3.95 | 2.86 µM | 14.5 µM | 2.9 µM | 8.52 | 3.14 µM | > 100 | 2.83 µM | 8.96 µM | 2.96 µM | 12.9
S=C(Nc1ccc(Br)cc1)Nc1ccc(Br)cc1 | 3.35 µM | > 100 | 7.93 µM | > 100 µM | 3.69 µM | > 100 | 5.04 µM | > 100 | 4.21 µM | > 100 | 4 µM | > 100 µM | 5.29 µM | > 100 | 6.96 µM | > 100 | 5.38 µM | > 100 µM | 4.32 µM | > 100
CC(=O)OCC1OC(n2c(-c3ccc(Cl)cc3)ccc(C#N)c2=S)C(OC(C)=O)C(OC(C)=O)C1OC(C)=O (stereo unspecified) | – | > 100 | 16 µM and 87 µM | 45.6 µM and > 100 µM | – | > 100 | – | > 100 | – | > 100 | > 100 µM | > 100 µM | – | > 100 | > 100 µM and 40.2 µM | > 100 | 29.4 µM and 62.3 µM | 64.1 µM and > 100 µM | – | > 100
CCCC(=O)NC1=C(Cl)C(=O)c2ccccc2C1=O | – | 12.2 | – | 6.07 µM | – | 20 | – | 16.3 | – | 4.52 | – | 10.1 µM | – | 6.27 | – | 6.31 | – | 15.6 µM | – | > 23.2
CCCNNC(=O)/C=C/c1ccc(CNCCc2c(C)[nH]c3ccccc23)cc1 | 0.0954 µM | 3.16 | 0.0342 µM | 3.68 µM | 0.0726 µM | 3.57 | 0.0449 µM | 0.115 | 0.00887 µM | 0.324 | 0.0369 µM | 0.123 µM | 0.0368 µM | 0.0797 | 0.0191 µM | 4.26 | 0.00506 µM | 0.133 µM | 0.169 µM | 2.29
Oc1[nH]c2ccccc2c1N=Nc1ccccn1 | – | > 100 | – | > 100 µM | – | 35.6 | – | 82.8 | – | 25.2 | – | > 100 µM | – | > 100 | – | 47.6 | – | 53.7 µM | – | 28
Cc1cc(=O)oc2cc(OC(=O)N(C)C)c(Cl)cc12 | – | > 100 | – | > 100 µM | – | > 100 | – | > 100 | – | > 100 | – | > 100 µM | – | > 100 | – | > 100 | – | > 100 µM | – | > 100
CC(=O)O[C@H]1CC[C@@]2(C)C(=CC[C@H]3[C@@H]4CC[C@H](c5cc(C(F)(F)F)n(C(C)=O)n5)[C@@]4(C)CC[C@@H]32)C1 | – | 21.8 | – | 20.8 µM | – | 12.6 | – | 27.3 | – | 15.8 | – | 24.5 µM | – | 22.4 | – | 14.8 | – | 14.9 µM | – | 24
[Cl][Hg][Cl] | 15.8 µM | 30.1 | 16.2 µM | 34.5 µM | 15.7 µM | 35.5 | 17.5 µM | 31.7 | 18 µM | 33.4 | 13.7 µM | 18.1 µM | 1.72 µM | 16 | 1.72 µM | – | 17.5 µM | 31.5 µM | 28.5 µM | 79.6
Clc1nc(Cl)c2ncn(Cc3cccc(Cn4cnc5c(Cl)nc(Cl)nc54)c3)c2n1 | 5.78 µM | 22.3 | 2.79 µM | 7.72 µM | 3.7 µM | 13.6 | 2.38 µM | 7.11 | 2.45 µM | 6.28 | 12 µM | 26.3 µM | 2.23 µM | 5.57 | 2.94 µM | 8.41 | 2.46 µM | 7.31 µM | 12.5 µM | 35
O=c1c(Oc2ccc(F)cc2F)cc2cnc(NC3CCOCC3)nc2n1CCCO | > 25 µM | > 25 | > 25 µM | > 25 µM | > 25 µM | > 25 | > 25 µM | > 25 | > 25 µM | > 25 | > 25 µM | > 25 µM | > 25 µM | > 25 | > 25 µM | > 25 | > 25 µM | > 25 µM | > 25 µM | > 25
CC(C)CCC(=O)c1ccoc1 | – | > 100 | – | > 100 µM | – | > 100 | – | > 100 | – | > 100 | – | > 100 µM | – | > 100 | – | > 100 | – | > 100 µM | – | > 100
C=C(c1ccc2nc(NC(=O)OC)[nH]c2c1)c1cccs1 | – | 2.24 | – | > 100 µM | – | > 100 | – | 0.86 | – | > 45.2 | – | 8.27 µM | – | > 52.6 | – | 1.11 | – | > 100 µM | – | 0.87
